# According to PubChem BioAssay AID220 (DTP/NCI, 2004):
# Where “and” joins values, the source holds several entries; their conditions need not be identical. Equal values may be shown once. Inconclusive results are not listed.
# Test system: CD8F1 mice, subcutaneous mammary adenocarcinoma, T/C%
# Assay: NCI In Vivo Anticancer Drug Screen. Data for tumor model Mammary Adenocarcinoma CD8F1 (subcutaneous) in CD8F1
# Details: higher = larger tumour
# In short: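 Antitumor activity is assessed in transplantable-tumor mice by comparing the treated group with a vehicle-treated control group. Survival or tumor size serves as the measure, reported as T divided by C.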
# [1] = endpoint: median tumor weight change, dose: 125.0 mg/kg/injection, schedule: Q01DX001 (ip), vehicle: Klucel (hydroxypropylcellulose) (HPC)
smiles,measurement,setting,value
COC1/C=C/O[C@@]2(C)Oc3c(C)c(O)c4c(O)c(cc(O)c4c3C2=O)NC(=O)/C(C)=C\C=C\[C@H](C)C(O)[C@@H](C)[C@@H](O)[C@@H](C)[C@H](OC(C)=O)[C@@H]1C (stereo not given in full),T/C,"endpoint: median tumor weight change, dose: 31.25 mg/kg/injection, schedule: Q01DX001 (ip), vehicle: saline with Tween-80",87 % of control
same,T/C,"endpoint: median tumor weight change, dose: 62.5 mg/kg/injection, schedule: Q01DX001 (ip), vehicle: saline with Tween-80",82 % of control
same,T/C,"endpoint: median tumor weight change, dose: 125.0 mg/kg/injection, schedule: Q01DX001 (ip), vehicle: saline with Tween-80",98 % of control
same,T/C,"endpoint: median tumor weight change, dose: 250.0 mg/kg/injection, schedule: Q01DX001 (ip), vehicle: saline with Tween-80",153 % of control
same,T/C,"endpoint: median tumor weight change, dose: 500.0 mg/kg/injection, schedule: Q01DX001 (ip), vehicle: saline with Tween-80",83 % of control
Nc1nc2c(ncn2C2OC(CO)C(O)C2N)c(=O)[nH]1 (stereo not given),T/C,"endpoint: median tumor weight (est.), dose: 4.5 mg/kg/injection, schedule: Q07DX005 (ip), vehicle: saline with Tween-80",79 % of control
same,T/C,"endpoint: median tumor weight (est.), dose: 9.0 mg/kg/injection, schedule: Q07DX005 (ip), vehicle: saline with Tween-80",99 % of control
same,T/C,"endpoint: median tumor weight (est.), dose: 36.0 mg/kg/injection, schedule: Q07DX005 (ip), vehicle: saline with Tween-80",172 % of control
same,T/C,"endpoint: median tumor weight (est.), dose: 72.0 mg/kg/injection, schedule: Q07DX005 (ip), vehicle: saline with Tween-80",106 % of control
O=C(NC/C(Cl)=C/Cl)Oc1cccc2ccccc12,T/C,"endpoint: mean tumor weight, dose: 0.78 mg/kg/injection, schedule: Q07DX004 (ip), vehicle: saline",78 % of control
same,T/C,"endpoint: mean tumor weight, dose: 1.56 mg/kg/injection, schedule: Q07DX004 (ip), vehicle: saline",91 % of control
same,T/C,"endpoint: mean tumor weight, dose: 3.12 mg/kg/injection, schedule: Q07DX004 (ip), vehicle: saline",112 % of control
same,T/C,"endpoint: mean tumor weight, dose: 6.25 mg/kg/injection, schedule: Q07DX004 (ip), vehicle: saline",72 % of control
same,T/C,"endpoint: mean tumor weight, dose: 12.5 mg/kg/injection, schedule: Q07DX004 (ip), vehicle: saline",58 % of control
Cc1ccc(S(=O)(=O)NC(=O)C2C(=O)CC3(CCCCC3)CC2=O)cc1,T/C,"endpoint: median tumor weight change, dose: 31.25 mg/kg/injection, schedule: Q01DX001 (ip), vehicle: Klucel (hydroxypropylcellulose) (HPC)",93 % of control
same,T/C,"endpoint: median tumor weight change, dose: 62.5 mg/kg/injection, schedule: Q01DX001 (ip), vehicle: Klucel (hydroxypropylcellulose) (HPC)",101 % of control
same,T/C,[1],122 % of control
COc1cc(C)c(C2NC(=O)c3ccccc3N2)cc1C (stereo not given),T/C,[1],69 % of control
same,T/C,"endpoint: median tumor weight change, dose: 250.0 mg/kg/injection, schedule: Q01DX001 (ip), vehicle: Klucel (hydroxypropylcellulose) (HPC)",76 % of control
same,T/C,"endpoint: median tumor weight change, dose: 500.0 mg/kg/injection, schedule: Q01DX001 (ip), vehicle: Klucel (hydroxypropylcellulose) (HPC)",91 % of control
same,T/C,"endpoint: median tumor weight change, dose: 1000.0 mg/kg/injection, schedule: Q01DX001 (ip), vehicle: Klucel (hydroxypropylcellulose) (HPC)",107 % of control
same,T/C,"endpoint: median tumor weight change, dose: 2000.0 mg/kg/injection, schedule: Q01DX001 (ip), vehicle: Klucel (hydroxypropylcellulose) (HPC)",84 % of control
Nc1ccc(Cl)cc1N,T/C,"endpoint: median tumor weight (est.), dose: 12.5 mg/kg/injection, schedule: Q07DX005 (ip), vehicle: saline + alcohol",92 % of control
same,T/C,"endpoint: median tumor weight (est.), dose: 25.0 mg/kg/injection, schedule: Q07DX005 (ip), vehicle: saline + alcohol",100 % of control
same,T/C,"endpoint: median tumor weight (est.), dose: 50.0 mg/kg/injection, schedule: Q07DX005 (ip), vehicle: saline + alcohol",100 % of control
same,T/C,"endpoint: median tumor weight (est.), dose: 100.0 mg/kg/injection, schedule: Q07DX005 (ip), vehicle: saline + alcohol",88 % of control
same,T/C,"endpoint: median tumor weight (est.), dose: 200.0 mg/kg/injection, schedule: Q07DX005 (ip), vehicle: saline + alcohol",123 % of control
CC(C)CCC[C@@H](C)[C@H]1CC[C@H]2[C@@H]3CC=C4C[C@@H](OC(=O)Cc5ccc(N(CCCl)CCCl)cc5)CC[C@]4(C)[C@H]3CC[C@]12C,T/C,"endpoint: median tumor weight (est.), dose: 25.0 mg/kg/injection, schedule: Q07DX005 (ip), vehicle: Klucel (hydroxypropylcellulose) (HPC)",91 % of control
same,T/C,"endpoint: median tumor weight (est.), dose: 50.0 mg/kg/injection, schedule: Q07DX005 (ip), vehicle: Klucel (hydroxypropylcellulose) (HPC)",73 % of control
same,T/C,"endpoint: median tumor weight (est.), dose: 100.0 mg/kg/injection, schedule: Q07DX005 (ip), vehicle: Klucel (hydroxypropylcellulose) (HPC)",123 % of control
same,T/C,"endpoint: median tumor weight (est.), dose: 200.0 mg/kg/injection, schedule: Q07DX005 (ip), vehicle: Klucel (hydroxypropylcellulose) (HPC)",57 % of control
same,T/C,"endpoint: median tumor weight (est.), dose: 400.0 mg/kg/injection, schedule: Q07DX005 (ip), vehicle: Klucel (hydroxypropylcellulose) (HPC)",102 % of control
same,T/C,"endpoint: median tumor weight (est.), dose: 800.0 mg/kg/injection, schedule: Q07DX005 (ip), vehicle: Klucel (hydroxypropylcellulose) (HPC)",36 % of control
C[n+]1ccc(Nc2ccc(NC(=O)c3ccc(Nc4cc[n+](C)c5ccc(N)cc45)cc3)cc2)cc1,T/C,"endpoint: median tumor weight (est.), dose: 16.0 mg/kg/injection, schedule: Q07DX005 (ip), vehicle: Klucel (hydroxypropylcellulose) (HPC)",51 % of control and 65 % of control
same,T/C,"endpoint: median tumor weight (est.), dose: 32.0 mg/kg/injection, schedule: Q07DX005 (ip), vehicle: Klucel (hydroxypropylcellulose) (HPC)",24 % of control and 25 % of control
